Experiment: Human HepG2 cell viability assay in 384 well format
Assay type: toxicity, cell-based
Set-up: dose 125 nL, time 70.5 hour; cytotoxicity at 70.5 h: concentration not given beside the values
Conditions: HepG2 cells, read-out: Inhibition

Row | Compound | cytotoxicity at 70.5 h [%]
1 | CCCS(=O)(=O)NC(C)C(=O)NCc1ccnc(N2CCCC2)c1 (stereo not drawn) | -3.25
2 | COc1ccccc1NC(=O)NCCCn1nc2ccccn2c1=O | -3.26
3 | CC1CCCCN1CCNC(=O)c1ccn(-c2ccccc2)n1 (stereo not drawn) | 13.6
4 | O=C(NCCN1CCCCC1)c1ccn(-c2ccc(F)cc2)n1 | 0.39
5 | O=C(CCNc1ncccn1)N1CCCN(c2nccs2)CC1 | 15.2
6 | CNS(=O)(=O)c1cccc(CNc2ncccn2)c1 | -1.46
7 | CN(Cc1nnc2n1CCC2)C(=O)Cc1ccc2c(c1)CCC2 | -6.67
8 | Cc1csc(N2CCN(C(=O)CCCNc3ncccn3)CC2)n1 | -5.37
9 | O=C(NCCNc1ncccn1)C1CC(=O)N(Cc2ccccn2)C1 (stereo not drawn) | 17.5
10 | CC(C)COCC(NC(=O)c1ccncc1)c1ccco1 (stereo not drawn) | -4.28
11 | Cc1cnc(C(=O)NC(COCC(C)C)c2ccco2)cn1 (stereo not drawn) | -0.693
12 | CCN1CCN(CCNC(=O)c2ccn(-c3ccc(F)cc3)n2)CC1 | -3.79
13 | CC(=O)N1CCN(C(=O)CN2CCCC2Cn2nc(C)cc2C)CC1 (stereo not drawn) | 11.5
14 | Cn1nc2c(cc1=O)CN(CCN1CCCC1=O)CC2 | -1.09
15 | Cc1csc(N2CCN(C(=O)c3ccc(C)s3)CC2)n1 | 5.75
16 | Cc1cc(C)n(CC2CCCN2C(=O)Cc2c(C)nc(C)[nH]c2=O)n1 (stereo not drawn) | -13.8
17 | CC(O)CN1CCC(CNCc2cccc(C(=O)N(C)C)c2)CC1 (stereo not drawn) | 1.45
18 | CC(Cn1cccn1)NCc1csc(Cc2ccccc2)n1 (stereo not drawn) | 0.563
19 | Cc1nc(C2CCCN2CCCc2nc3ccccc3o2)no1 (stereo not drawn) | -1.3
20 | c1ccc(CN2CCCC(Cn3cncn3)C2)nc1 (stereo not drawn) | 20.8
21 | COc1ccccc1OCCC(=O)N1CCCCC1c1nccs1 (stereo not drawn) | 0.499
22 | O=C(NCCNc1ncccn1)N1CCN(c2nccs2)CC1 | -2.7
23 | Cc1cc(C2CCCN2Cc2nc3ccccc3o2)on1 (stereo not drawn) | 1.19
24 | CCOc1ccc(S(=O)(=O)NC(=O)CC2CCCO2)cc1 (stereo not drawn) | 17.8

Row | Compound | cytotoxicity at 70.5 h [%]
25 | CS(=O)(=O)CCNC(=O)c1ccc(-c2ccco2)[nH]c1=O | 1.54
26 | Cc1nc(-c2ccccc2)n(CC(=O)NC(C)C)n1 | -1.29
27 | c1csc(-c2noc(CN3CCCCC3Cn3cccn3)n2)c1 (stereo not drawn) | -1.63
28 | O=C1COc2ccc(C(=O)N3CCCC(n4ccnc4)C3)cc2N1 (stereo not drawn) | 2.98
29 | Cc1nc(C2CCCN(C(=O)c3cc(Cl)c[nH]3)C2)sc1C (stereo not drawn) | -2.27
30 | COc1cccc(C(=O)N2CCCCC2c2nccs2)c1OC (stereo not drawn) | 2.23
31 | O=C(NCCNc1ncccn1)N1CCN(C2CCCC2)CC1 | -8.5
32 | COc1cc(C(=O)N2CCCC(c3cc(C)[nH]n3)C2)cc(OC)c1C (stereo not drawn) | 29
33 | Cc1cnn(CCC(=O)N2CCCC(c3cc(C)[nH]n3)C2)c1 (stereo not drawn) | 49
34 | COc1c(C2CCCN2CC(=O)Nc2ccncc2)c(C)nn1C (stereo not drawn) | 6.03
35 | O=C(NCc1nncn1-c1ccccc1)C1CC1 | -1.31
36 | Cc1ccc(OCCCC(=O)NC(C)c2nnc3n2CCC3)cc1 (stereo not drawn) | -0.817
37 | Cc1cccc(OCCC(=O)NC(C)c2nnc3n2CCC3)c1 (stereo not drawn) | 2.23
38 | Cc1ccccc1OCCCC(=O)NC(C)c1nnc2n1CCC2 (stereo not drawn) | -2.09
39 | CN(C)c1cc(CNC(=O)Nc2cccnc2N2CCCC2)ccn1 | -2.03
40 | O=C(NCc1ccc2c(c1)OCO2)Nc1cccnc1N1CCCC1 | -2.2
41 | O=C(NCc1ccc(-n2cncn2)nc1)c1ccc2c(c1)CCC2 | 0.85
42 | COc1ccc(CNC(=O)Nc2ccc(N3CCCC3)nc2)cc1O | -2.31
43 | COc1ncccc1NC(=O)NC(C)c1nncn1C (stereo not drawn) | -5.01
44 | COc1ccc(CNC(=O)Nc2cccnc2N2CCCC2)cc1OC | 20.8
45 | CC(NC(=O)Nc1ccc(N2CCCC2)nc1)c1nncn1C (stereo not drawn) | 5.27
46 | COc1ccccc1OCCN1CCCCC1Cn1cncn1 (stereo not drawn) | 23.7
47 | Cc1nn(C)c(C)c1C1CCCN1CC(=O)Nc1nccs1 (stereo not drawn) | -0.764
48 | Cc1nn(C)c(C)c1C1CCCN1CC(=O)Nc1cccnc1 (stereo not drawn) | 23.1

Row | Compound | cytotoxicity at 70.5 h [%]
49 | Cc1nnc(NC(=O)CN2CCCC2c2c(C)nn(C)c2C)s1 (stereo not drawn) | 7.87
50 | Cc1n[nH]c(C)c1NC(=O)CN1CCCC1c1c(C)nn(C)c1C (stereo not drawn) | 1.54
51 | COc1ccccc1CC(=O)N1CCCC(c2cc(C)[nH]n2)C1 (stereo not drawn) | 3.02
52 | COc1cc(Cl)ccc1C(=O)N1CCCC(c2cc(C)[nH]n2)C1 (stereo not drawn) | 36.1
53 | CC(NC(=O)CCOc1ccc(F)cc1)c1nnc2n1CCCCC2 (stereo not drawn) | 5.98
54 | CC(C)c1nc2n(n1)CC(NCc1nc(C3CC3)no1)CC2 (stereo not drawn) | -1.86
55 | c1cnnc(N2CCCC(NCc3cccc4c3OCCCO4)C2)c1 (stereo not drawn) | 0.746
56 | Cn1cnnc1C1CCCN(C(=O)COCc2ccccc2)C1 (stereo not drawn) | -2.8
57 | COCc1nc(C(=O)N2CCCC(n3nc(C)nc3C)C2)cs1 (stereo not drawn) | 28.1
58 | Cc1nc(C)n(C2CCCN(C(=O)c3ccn(C(C)C)n3)C2)n1 (stereo not drawn) | -6.2
59 | Cc1nc(C)n(C2CCCN(C(=O)c3cscn3)C2)n1 (stereo not drawn) | -2.85
60 | Cc1cnc(C(=O)N2CCCC(n3nc(C)nc3C)C2)cn1 (stereo not drawn) | -11.1
61 | COc1ncccc1CNC(=O)c1cc(C)on1 | -8.23
62 | CC(C)Oc1ncccc1CNC(=O)c1ccc(=O)[nH]n1 | -3.21
63 | COc1cccc(C(=O)N2CCCC(CNS(C)(=O)=O)C2)c1 (stereo not drawn) | -8.76
64 | Cc1cnc(C(=O)NCc2cccnc2OC(C)C)cn1 | 21
65 | c1cnnc(N2CCCC2CNc2nc3ccccc3o2)c1 (stereo not drawn) | -2.85
66 | CCCc1ncc(C(=O)N2CCOC(c3nc(C)n[nH]3)C2)s1 (stereo not drawn) | -7.33
67 | CCc1ncncc1C(=O)N1CCOC(c2nc(C)n[nH]2)C1 (stereo not drawn) | -3
68 | CCc1nnsc1C(=O)N1CCOC(c2nc(C)n[nH]2)C1 (stereo not drawn) | 1.73
69 | Cc1cnn(CC2CCCCN2C(=O)Cc2csc(C)n2)c1 (stereo not drawn) | -7.78
70 | Cc1nn(C)c(N(C)C)c1CNCc1ccccc1Cn1cncn1 | -9.26
71 | Cc1nc(C(=O)N2CCCC2c2c(C)nn(C)c2C)ccc1C#N (stereo not drawn) | -7.57
72 | COc1ccc(C(=O)N2CCC(Nc3cccnn3)CC2)c(OC)c1 | -6.9

Row | Compound | cytotoxicity at 70.5 h [%]
73 | CC(NC(N)=O)C(=O)N1CCCN(Cc2nccn2C(C)C)CC1 (stereo not drawn) | -11.9
74 | Cc1nnc2n1CCN(CCOc1ccccc1)C2 | -11.4
75 | Cc1ccc(NC2CCN(C(=O)c3cccc(F)c3F)CC2)nn1 | -13.7
76 | Cc1ccc(-c2nc(CN3CCC(C(=O)N(C)C)CC3)cs2)o1 | 9.92
77 | CCCc1n[nH]c(C2CN(CCNS(=O)(=O)CC)CCO2)n1 (stereo not drawn) | 7.53
78 | O=S(=O)(CCN1CCOC(Cn2cccn2)C1)C(F)(F)F (stereo not drawn) | 11.7
79 | CCn1cnnc1CNC(=O)c1cc(Cl)ccc1O | 22.7
80 | Cc1cccc(C(=O)NCc2ccc(N3CCCCC3)nc2)n1 | -3.76
81 | Cn1cc(C(=O)NC2CCN(C(=O)NCCSC(F)(F)F)CC2)cn1 | -1.82
82 | CCc1cccc(N2CCC(NC(=O)c3cc[nH]n3)CC2)c1 | 31.2
83 | CCN1CCCC(CNC(=O)C2(c3cccc(Cl)c3)CC2)C1 (stereo not drawn) | -0.608
84 | CCN1CCC(CNC(=O)C2(c3cccc(C)c3)CC2)C1 (stereo not drawn) | 0.0668
85 | CCn1cc(NC(=O)C2CCN(Cc3ccccc3C#N)CC2)cn1 | -1.61
86 | O=C(CCc1ccccc1F)NS(=O)(=O)c1ccc2c(c1)OCCCO2 | -3.8
87 | FC(F)(F)Cn1ccnc1CN1CCOC(Cn2cccn2)C1 (stereo not drawn) | -2.61
88 | Cc1cc(C)n(CC2CCCN2C(=O)c2cc[nH]n2)n1 (stereo not drawn) | -1.3
89 | Cc1cc(C)n(C2CN(CC(=O)N3CCOCC3)C2)n1 | 4.72
90 | Cc1cc(C)n(C2CN(CC(=O)NCC(C)(C)N3CCOCC3)C2)n1 | 0.262
91 | Cc1ccoc1C(=O)NC1CCN(Cc2csc3c(F)cccc23)CC1 | 18.8
92 | CC(C)C(=O)NC1CCN(Cc2cccc3c2OCCO3)CC1 | -1.98
93 | c1ccc(OCCCNCCn2cccn2)cc1 | -0.836
94 | CCc1nc(CN(Cc2cccs2)CC2CCCO2)no1 (stereo not drawn) | 1.39
95 | Cc1cnn(C2CCCN(C(=O)c3ccnc(N(C)C)c3)C2)c1 (stereo not drawn) | 28.8
96 | Cc1cnn(C2CCCN(C(=O)c3cccc(Cn4ccnc4)c3)C2)c1 (stereo not drawn) | 20.1

Row | Compound | cytotoxicity at 70.5 h [%]
97 | CSc1ncccc1C(=O)NCc1ccc(CS(=O)(=O)NC(C)C)cc1 | 2.32
98 | COc1ccc(OC)c(NC(=O)NCC(O)c2ccc(F)c(F)c2)c1 (stereo not drawn) | 9.62
99 | O=C(NCCNc1cnccn1)C1CCN(C(=O)N2CCCC2)CC1 | 2.17
100 | COc1ncccc1NC(=O)NCC(O)c1ccc(F)cc1F (stereo not drawn) | -1.05
101 | CS(=O)(=O)Cc1ccc(CNC(=O)c2cccnc2O)cc1 | 9.83
102 | Cc1cc(C)c(CNC(=O)N2CCCC2C(N)=O)c(=O)[nH]1 (stereo not drawn) | -4.33
103 | CC(C)NC(=O)Cn1cc(-c2ccccc2)cn1 | 1.95
104 | O=C(NCCNc1cnccn1)N1CCCC1 | 5.69
105 | CC(C(=O)N1CCN(c2cnccn2)CC1)n1cncn1 (stereo not drawn) | -4.32
106 | CC(=O)NC(C)(C)C(=O)Nc1ncc(Cc2ccc(C)c(F)c2)s1 | -0.712
107 | Cc1cc(C)n(C2CCCN(C(=O)CCCNc3ncccn3)C2)n1 (stereo not drawn) | 27.5
108 | Cc1cnn(CC2CCCCN2CCC(=O)Nc2cc(C)on2)c1 (stereo not drawn) | 4.06
109 | CC(C)c1n[nH]c(C2CN(C(=O)CCn3ccccc3=O)CCO2)n1 (stereo not drawn) | -2.51
110 | Cc1ccc(N2CCCC(NCC(=O)NC3CCOCC3)C2)nn1 (stereo not drawn) | -3.6
111 | CCNC(c1ccc(OC)cc1)c1cccnc1 (stereo not drawn) | -8.14
112 | Cc1nn(C)c(Cl)c1C1CCCN1CC(=O)NCc1ccccn1 (stereo not drawn) | -7.66
113 | c1ccc2cc(OCCN3CCOC(Cn4cncn4)C3)ccc2c1 (stereo not drawn) | 27.8
114 | Cc1nc(C(=O)N2CCCC(n3cncn3)C2)cs1 (stereo not drawn) | -3.83
115 | CC(C)N1CCC(CNCc2c[nH]nc2C(C)(C)C)C1 (stereo not drawn) | -0.871
116 | Cc1ccc(N2CCCC(NCc3ccsc3)C2)nn1 (stereo not drawn) | -4.89
117 | O=C(CCOCc1ccccc1)N1CCCC1c1noc(C2CC2)n1 (stereo not drawn) | -2.09
118 | Cc1ccc(NC2CCN(C(=O)Cc3cccc(F)c3)CC2)nn1 | -4.83
